According to patent publication US20060084789A1, “Immunotherapeutic and immunoprphylactic reagents” (priority 2002, published 2006):

Key:
Format in all cases: cell-based, human
[1] = test system: IFN-γ production by RGP-specific TCL; assay: IFN-γ detection in culture supernatants by sandwich ELISA; conditions: supernatant at 48 h, UD undetectable, limit of detection 2 pg/ml
Procedure: (§1) Cytokine Detection in Culture Supernatants
(§2) Supernatants of triplicate cultures were harvested and pooled from T cell proliferation assay cultures at 48 hours for the detection of IL-5 and IFN-γ production by sandwich ELISA. Briefly white Maxisorp (NUNC, Roskilde, Denmark) ELISA plates were coated with capture mAb (anti-IL-5, Pharmingen, San Diego, Calif., USA; anti-IFN-γ, Endogen, Woburn, Mass. USA) overnight at 4° C. Plates were then washed and wells blocked with 1% Bovine Serum Albumin/PBS for 1 hour at room temperature. Following washing, test samples (neat) and serial dilutions of recombinant human IL-5 (Pharmingen, USA) or IFN-γ (Endogen, USA) (for the construction of standard curves) were added and incubated overnight at 4° C. Following washing, plates were incubated with biotinylated detecting mAb (anti-IL-5, Pharmingen, USA; […], Endogen, USA) for 1 hour at room temperature. Plates were then washed and incubated with streptavidin-peroxidase (Amersham, Piscataway, N.J., USA) for 30 minutes at room temperature. Following washing, a chemiluminescent substrate (Du Pont, Wilmington, Del., USA) was added to each well and plates read in a Lumicount microplate Glow Luminometer (Packard Instrument Company, Meriden, Conn., USA), 0.5 seconds/well, automatic sensitivity setting. Standard curve construction and determination of test sample cytokine levels were performed using Packard I-smart software. The limits of detection for IL-5 and IFN-γ were 10 pg/ml and 2 pg/ml respectively.

RGP-specific TCL = assay: TCL proliferation assay (3H-thymidine incorporation, stimulation index); conditions: peptides 10 μg/ml
Procedure: Generation of Short-Term RGP-Specific TCL
PBMC were cultured in 24-well plates (Costar, Mass., USA) at 2.5×10^6 cells/well with RGP extract at a concentration of 25 or 50 μg/ml in RPMI 1640 medium (Gibco BRL, NY, USA) supplemented with 2 mM GlutaMAX I (Gibco BRL), 0.05 mg/ml gentamicin (David Bull Laboratories, Mulgrave, Victoria, Australia) and 5% heat-inactivated hunan AB^+ serum (Sigma, Mo., USA) for 7 days at 37° C. in a 5% CO2 humidified incubator. At day 7, cells were washed once and restimulated in 24-well plates at 5×10^5 cells/well width 25 or 50 μg/ml of RGP extract in the presence of 5×10^5 cells/well irradiated (3000 rads) autologous PBMC as a source of antigen presenting cells (APC). At day 2 following restimulation, 10 U/ml of Lymphocult T-LF (LC; Biotest, Germany) was added as a source of IL-2 and at day 4, 1 ml of culture medium was removed and replaced with fresh medium and 10 U/ml of LC. […] In all experiments T cells were rested for 6 to 7 days after the last addition of antigen and APC before testing.
T cells (5×10^4/well) were cultured in 96-well U bottom plates with either RGP extract at concentrations ranging from 25 to 200 μg/ml, purified Lol p 1 (0.12 to 2 μg/ml) or Lol p 5 (0.1 to 10 μg/ml), or Lol p 1 or Lol p 5 peptides (10 μg/ml), or medium alone (to determine background levels of proliferation), in the presence of washed autologous irradiated (3000 rads) PBMC (5×10^4/well). […] Cultures were incubated for 3 days, pulsed for the last 16 hours with ^3H-thymidine (1 μCi/well) and harvested onto glass fibre filters. ^3H-thymidine incorporation was measured by liquid scintillation spectroscopy and the mean counts per minute (cpm) for triplicate cultures was determined. Responses were considered positive if the stimulation index (SI, cpm of antigen-stimulated T cells divided by cpm of unstimulated T cells) was ≧2.5. Where several concentrations of allergen were tested (i.e., RGP, Lol p 1 and Lol p 5), values corresponding to the highest proliferation are shown.

[2] = test system: IL-5 production by RGP-specific TCL; assay: IL-5 detection in culture supernatants by sandwich ELISA; conditions: supernatant at 48 h, UD undetectable, limit of detection 10 pg/ml
Procedure: as §1, §2

[3] = Subject 15 TCL, Lol p 1 peptides
[4] = Subject 19 TCL, Lol p 1 peptides
[5] = Subject 4 TCL, Lol p 1 series (Table 3), RGP and Lol p 1 maximal response
[6] = Subject 11 TCL, Lol p 1 series (Table 3), RGP and Lol p 1 maximal response
[7] = Subject 15 TCL, Lol p 1 series (Table 3), RGP and Lol p 1 maximal response
[8] = Subject 19 TCL, Lol p 1 series (Table 3), RGP and Lol p 1 maximal response
[9] = Subject 23 TCL, Lol p 1 peptides
[10] = Subject 10 TCL, Lol p 1 series (Table 3), RGP and Lol p 1 maximal response
[11] = Subject 18 TCL, Lol p 1 series (Table 3), RGP and Lol p 1 maximal response
[12] = Subject 23 TCL, Lol p 1 series (Table 3), RGP and Lol p 1 maximal response
[13] = Subject 14 TCL, Lol p 1 series (Table 3), RGP and Lol p 1 maximal response
[14] = Subject 2 TCL, Lol p 5 peptides
[15] = Subject 38 TCL, Lol p 5 peptides
[16] = Subject 2 TCL, Lol p 5 series (Table 4), RGP and Lol p 5 maximal response
[17] = Subject 11 TCL, Lol p 5 series (Table 4), RGP and Lol p 5 maximal response
[18] = Subject 13 TCL, Lol p 5 series (Table 4), RGP and Lol p 5 maximal response
[19] = Subject 38 TCL, Lol p 5 series (Table 4), RGP and Lol p 5 maximal response, * SDS-PAGE purified Lol p 5

Substance: KPTGAGPKDNGGACGYKDVD (Lolium perenne) [Lol p 1 peptide 28-47]
- IFN-γ, proliferation inducing peptides [1, 3]: 23.2 pg/mL
- IFN-γ, proliferation inducing peptides [1, 4]: 5.2 pg/mL
- Proliferative response, stimulation index (RGP-specific TCL; [5]): 4.1
- Proliferative response, stimulation index (RGP-specific TCL; [6]): 3.5
- Proliferative response, stimulation index (RGP-specific TCL; [7]): 7.6
- Proliferative response, stimulation index (RGP-specific TCL; [8]): 3.0

Substance: KGKDKWIELKESWGAVWRID (Lolium perenne) [Lol p 1 peptide 181-200]
- IFN-γ, proliferation inducing peptides [1, 3]: 56.6 pg/mL
- IFN-γ, proliferation inducing peptides [1, 9]: 11.7 pg/mL
- Proliferative response, stimulation index (RGP-specific TCL; [5]): 4.5
- Proliferative response, stimulation index (RGP-specific TCL; [10]): 2.6
- Proliferative response, stimulation index (RGP-specific TCL; [6]): 7.3
- Proliferative response, stimulation index (RGP-specific TCL; [7]): 5.8
- Proliferative response, stimulation index (RGP-specific TCL; [11]): 2.6
- Proliferative response, stimulation index (RGP-specific TCL; [12]): 6.2
- IL-5, proliferation inducing peptides [2, 3]: 13.3 pg/mL
- IL-5, proliferation inducing peptides [2, 9]: 25.1 pg/mL

Substance: Lol p 1 peptide 136-155: synthetic 20-mer, amino acids 136-155 of Lol p 1A (SEQ ID NO:1) (RRVKCKYPDGTKPTFHVEKA; Lolium perenne)
- IFN-γ, proliferation inducing peptides ([1]; Subject 14 TCL, Lol p 1 peptides): 106.4 pg/mL
- Proliferative response, stimulation index (RGP-specific TCL; [5]): 2.5
- Proliferative response, stimulation index (RGP-specific TCL; [13]): 4.4

Substance: Lol p 1 peptide 64-83: synthetic 20-mer, amino acids 64-83 of Lol p 1A (SEQ ID NO:1) (KDGRGCGSCFEIKCTKPESC; Lolium perenne)
- IFN-γ, proliferation inducing peptides [1, 3]: 38.8 pg/mL
- Proliferative response, stimulation index (RGP-specific TCL; Subject 1 TCL, Lol p 1 series (Table 3), RGP and Lol p 1 maximal response): 7.2
- Proliferative response, stimulation index (RGP-specific TCL; Subject 7 TCL, Lol p 1 series (Table 3), RGP and Lol p 1 maximal response): 3.5
- Proliferative response, stimulation index (RGP-specific TCL; [7]): 3.5
- IL-5, proliferation inducing peptides [2, 3]: 26.5 pg/mL

Substance: KESWGAVWRIDTPDKLTGPF (Lolium perenne) [Lol p 1 peptide 190-209]
- IFN-γ, proliferation inducing peptides ([1]; Subject 10 TCL, Lol p 1 peptides): 9.0 pg/mL
- IFN-γ, proliferation inducing peptides [1, 3]: 63.5 pg/mL
- IFN-γ, proliferation inducing peptides [1, 9]: 8.3 pg/mL
- Proliferative response, stimulation index (RGP-specific TCL; [5]): 6.2
- Proliferative response, stimulation index (RGP-specific TCL; [10]): 3.7
- Proliferative response, stimulation index (RGP-specific TCL; [6]): 3.3
- Proliferative response, stimulation index (RGP-specific TCL; [13]): 5.7
- Proliferative response, stimulation index (RGP-specific TCL; [11]): 5.4
- Proliferative response, stimulation index (RGP-specific TCL; [8]): 3.0
- Proliferative response, stimulation index (RGP-specific TCL; Subject 22 TCL, Lol p 1 series (Table 3), RGP and Lol p 1 maximal response): 5.7
- Proliferative response, stimulation index (RGP-specific TCL; [12]): 5.2
- IL-5, proliferation inducing peptides [2, 3]: 15.3 pg/mL
- IL-5, proliferation inducing peptides [2, 4]: 14.7 pg/mL

Substance: DVNAGFKAAVAAAANAPPAD (Lolium perenne) [Lol p 5 peptide 37-56]
- IFN-γ, proliferation inducing peptides [1, 14]: 7.0 pg/mL
- IFN-γ, proliferation inducing peptides [1, 15]: 85.0 pg/mL
- Proliferative response, stimulation index (RGP-specific TCL; [16]): 4.3
- Proliferative response, stimulation index (RGP-specific TCL; Subject 6 TCL, Lol p 5 series (Table 4), RGP and Lol p 5 maximal response): 7.3
- Proliferative response, stimulation index (RGP-specific TCL; [17]): 4.5
- Proliferative response, stimulation index (RGP-specific TCL; [18]): 0.9
- Proliferative response, stimulation index (RGP-specific TCL; Subject 20 TCL, Lol p 5 series (Table 4), RGP and Lol p 5 maximal response): 4.9
- Proliferative response, stimulation index (RGP-specific TCL; Subject 29 TCL, Lol p 5 series (Table 4), RGP and Lol p 5 maximal response): 2.8
- Proliferative response, stimulation index (RGP-specific TCL; Subject 35 TCL, Lol p 5 series (Table 4), RGP and Lol p 5 maximal response): 4.1
- Proliferative response, stimulation index (RGP-specific TCL; [19]): 4.0
- IL-5, proliferation inducing peptides [2, 14]: 692.8 pg/mL
- IL-5, proliferation inducing peptides [2, 15]: 275.1 pg/mL

Substance: AALTKAITAMTQAQKAGKPA (Lolium perenne) [Lol p 5 peptide 226-245]
- IFN-γ, proliferation inducing peptides [1, 14]: 292.0 pg/mL
- Proliferative response, stimulation index (RGP-specific TCL; [16]): 3.3
- Proliferative response, stimulation index (RGP-specific TCL; [17]): 3.5
- Proliferative response, stimulation index (RGP-specific TCL; [18]): 2.0
- Proliferative response, stimulation index (RGP-specific TCL; Subject 27 TCL, Lol p 5 series (Table 4), RGP and Lol p 5 maximal response, † affinity purified Lol p 5): 7.1

Substance: ADKFKIFEAAFSESSKGLLA (Lolium perenne) [Lol p 5 peptide 55-74]
- IFN-γ, proliferation inducing peptides [1, 15]: 54.2 pg/mL
- Proliferative response, stimulation index (RGP-specific TCL; Subject 36 TCL, Lol p 5 series (Table 4), RGP and Lol p 5 maximal response): 3.3
- Proliferative response, stimulation index (RGP-specific TCL; [19]): 3.3
- IL-5, proliferation inducing peptides [2, 15]: 220.7 pg/mL

Substance: Lol p 1 peptide 1-20: synthetic 20-mer, amino acids 1-20 of Lol p 1A (SEQ ID NO:1) (IAKVPPGPNITAEYGDKWLD; Lolium perenne)
- Proliferative response, stimulation index (RGP-specific TCL; Subject 24 TCL, Lol p 1 series (Table 3), RGP and Lol p 1 maximal response): 2.6
- IL-5, proliferation inducing peptides ([2]; Subject 74 TCL, Lol p 1 peptides): 46.1 pg/mL
